According to US9738600B2, “ROR gamma (RORγ) modulators” (LEAD PHARMA CEL MODELS IP B.V., priority 2013, dated 2017):

Target: T1, RORγ (Homo sapiens, UniProt P51449)
T1 sequence (P51449 269-508 limits assumed): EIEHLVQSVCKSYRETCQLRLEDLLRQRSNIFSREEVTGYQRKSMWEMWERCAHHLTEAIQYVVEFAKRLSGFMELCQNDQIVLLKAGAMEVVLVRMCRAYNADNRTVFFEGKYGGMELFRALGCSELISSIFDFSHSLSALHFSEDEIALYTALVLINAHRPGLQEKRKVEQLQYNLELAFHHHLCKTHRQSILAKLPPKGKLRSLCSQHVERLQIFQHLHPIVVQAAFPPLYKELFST
Test: RORγ GAL4 reporter gene assay
Settings: mean pIC50, inhibition of RORγ (GAL4-RORγ-LBD) in 293FT cells, luciferase readout, overnight incubation
Description: The RORγ ligand-binding domain (LBD) was fused to the yeast GAL4 DNA binding domain (DBD) and placed under the control of the human cytomegalovirus (CMV) immediate early promoter, using expression vector pFN26A (Promega) and standard recombinant DNA cloning methods.
To monitor the inhibitory effect of compounds on RORγ, a transcriptional reporter construct was used. The pGL4.35 vector (Promega) contains nine copies of the GAL4 Upstream Activator Sequence (UAS). This sequence drives the transcription of the luciferase reporter gene luc2P in response to binding of a fusion protein containing the GAL4 DNA binding domain, as for example expressed by the GAL4-RORγ-LBD and GAL4-VP16 expression vectors described above.
The day after transfection, cells were plated into 96 well plates, test compound was added and the plates were incubated overnight. Subsequently, the firefly luciferase activity was quantified using luciferase detection reagent and luminescence readout.
1500 μL of this reagent mixture was added to 5 μg of GAL4 fusion protein expression vector and 5 μg of the transcriptional reporter construct, and incubated at RT for 20 minutes.
Subsequently, the cells were washed with Phosphate Buffered Saline (PBS) (Lonza), after which the PBS was removed. To dissociate the cells, 1 ml of TrypLE Express (Invitrogen) was added to the flask, followed by incubation at RT until the cells visually started to detach. Cells were collected in 5 mL of assay medium (DMEM culture medium (Lonza), 10% dialyzed FBS (Invitrogen) and Pen/Strep (Lonza)) to achieve a single cell suspension. 10×10^6 cells were spun down and re-suspended in 10 mL of assay medium. Subsequently, the cell suspension was added to the transfection mix tube, and then transferred as a whole to a T75 flask (Greiner), followed by overnight (16-24 hours) incubation at 37° C. and 5% CO2.
For compound screening, the cells were harvested (as described above) and counted. […] 80 μL of cell suspension (60,000 cells) was plated per well into a white, flat bottom, tissue culture treated, 96 well screening plates (Greiner).
Test compounds were diluted, starting from a 10 mM dimethylsulfoxide (DMSO) stock solution, to serial dilutions in DMSO at 500× the final test concentration. Subsequently, these solutions were diluted to 5× the final test concentration in two 10-fold-dilution steps in assay medium. The final DMSO concentration of the 5× test compound solution was 1%. 20 μL of the 5× test compound solution was added to each test well of the 96 well plate previously plated with 80 μl cell suspension, resulting in the final test concentration with 0.2% DMSO.
The plates were incubated overnight (16-24 hours) at 37° C. and 5% CO2.
For the luciferase readout, the luciferase reagent (Britelite Plus, Perkin Elmer) was brought to RT. […] The luciferase luminescence signal was measured using a Wallac Victor Microplate Reader (Perkin Elmer).
The half maximum inhibitory concentration (IC50) values for the test compounds were calculated from the luciferase signal using GraphPad Prism software (GraphPad Software).

`O=C(Cc1ccc(S(=O)(=O)CC2CC2)cc1)Nc1ccc(C(O)(C(F)(F)F)C(F)(F)F)cn1` [Example 107, 2-(4-((cyclopropylmethyl)sulfonyl)phenyl)-N-(5-(1,1,1,3,3,3-hexafluoro-2-hydroxypropan-2-yl)pyridin-2-yl)acetamide] and `O=C(Cc1ccc(S(=O)(=O)CC2CC2)cc1)Nc1ccc(C(O)(C(F)(F)F)C(F)(F)F)cc1Cl` [Example 98, N-(2-chloro-4-(1,1,1,3,3,3-hexafluoro-2-hydroxypropan-2-yl)phenyl)-2-(4-((cyclopropylmethyl)sulfonyl)phenyl)acetamide] cannot be ordered by IC50: at most 100 nM for the first, at most 100 nM for the second.

`O=C(Cc1ccc(S(=O)(=O)NC2CC2)cc1)Nc1ccc(C(O)(C(F)(F)F)C(F)(F)F)c(F)c1` [Example 33, 2-(4-(N-cyclopropylsulfamoyl)phenyl)-N-(3-fluoro-4-(1,1,1,3,3,3-hexafluoro-2-hydroxypropan-2-yl)phenyl)acetamide] and `O=C(Cc1ccc(S(=O)(=O)CC2CC2)cc1)Nc1ccc(C(O)(C(F)(F)F)C(F)(F)F)c(F)c1` [Example 45, 2-(4-((cyclopropylmethyl)sulfonyl)phenyl)-N-(3-fluoro-4-(1,1,1,3,3,3-hexafluoro-2-hydroxypropan-2-yl)phenyl)acetamide] cannot be ordered by IC50: at most 100 nM for the first, at most 10 nM for the second.

`CNS(=O)(=O)c1ccc(CC(=O)Nc2ccc(C(O)(C(F)(F)F)C(F)(F)F)cc2)cc1` [Example 6, N-(4-(1,1,1,3,3,3-hexafluoro-2-hydroxypropan-2-yl)phenyl)-2-(4-(N-methylsulfamoyl)phenyl)acetamide] and `CNS(=O)(=O)c1cccc(CC(=O)Nc2ccc(C(O)(C(F)(F)F)C(F)(F)F)cc2)c1` [Example 19, N-(4-(1,1,1,3,3,3-hexafluoro-2-hydroxypropan-2-yl)phenyl)-2-(3-(N-methylsulfamoyl)phenyl)acetamide] cannot be ordered by IC50: at most 1000 nM for the first, at most 1000 nM for the second.

`CC(C)(C)CC(O)(c1ccc(NC(=O)Cc2ccc(S(=O)(=O)CC3CC3)cc2)cc1)C(F)(F)F` (centres unmarked) [Example 82, 2-(4-((cyclopropylmethyl)sulfonyl)phenyl)-N-(4-(1,1,1-trifluoro-2-hydroxy-4,4-dimethylpentan-2-yl)phenyl)acetamide] and `O=C(Cc1ccc(S(=O)(=O)CC2CC2)cc1)Nc1ccc(C(O)(CC2CCCC2)C(F)(F)F)cc1` (centres unmarked) [Example 68, N-(4-(3-cyclopentyl-1,1,1-trifluoro-2-hydroxypropan-2-yl)phenyl)-2-(4-((cyclopropylmethyl)sulfonyl)phenyl)acetamide] cannot be ordered by IC50: at most 10 nM for the first, at most 100 nM for the second.

`COc1cc(C(O)(C(F)(F)F)C(F)(F)F)ccc1NC(=O)Cc1ccc(S(=O)(=O)CC2CC2)cc1` [Example 55, 2-(4-((cyclopropylmethyl)sulfonyl)phenyl)-N-(4-(1,1,1,3,3,3-hexafluoro-2-hydroxypropan-2-yl)-2-methoxyphenyl)acetamide] and `O=C(Cc1ccc(S(=O)(=O)CC2CC2)cc1)Nc1ccc(C(O)(C(F)(F)F)C(F)(F)F)c(Cl)c1` [Example 62, N-(3-chloro-4-(1,1,1,3,3,3-hexafluoro-2-hydroxypropan-2-yl)phenyl)-2-(4-((cyclopropylmethyl)sulfonyl)phenyl)acetamide] cannot be ordered by IC50: at most 100 nM for the first, at most 100 nM for the second.

`CCS(=O)(=O)c1ccc(CC(=O)Nc2ccc(C(O)(C(F)(F)F)C(F)(F)F)cc2F)cc1` [Example 28, 2-(4-(ethylsulfonyl)phenyl)-N-(2-fluoro-4-(1,1,1,3,3,3-hexafluoro-2-hydroxypropan-2-yl)phenyl)acetamide] and `O=C(Cc1ccc(S(=O)(=O)NC2CC2)cc1)Nc1ccc(C(O)(C(F)(F)F)C(F)(F)F)cc1F` [Example 35, 2-(4-(N-cyclopropylsulfamoyl)phenyl)-N-(2-fluoro-4-(1,1,1,3,3,3-hexafluoro-2-hydroxypropan-2-yl)phenyl)acetamide] cannot be ordered by IC50: at most 1000 nM for the first, at most 100 nM for the second.

`CCS(=O)(=O)c1ccc(CC(=O)Nc2ccc(C(O)(C3CCCC3)C(F)(F)F)cc2)cc1` (centres unmarked) [Example 85, N-(4-(1-cyclopentyl-2,2,2-trifluoro-1-hydroxyethyl)phenyl)-2-(4-(ethylsulfonyl)phenyl)acetamide] and `CCCC(O)(c1ccc(NC(=O)Cc2ccc(S(=O)(=O)CC)cc2)cc1)C(F)(F)F` (centres unmarked) [Example 63, 2-(4-(ethylsulfonyl)phenyl)-N-(4-(1,1,1-trifluoro-2-hydroxypentan-2-yl)phenyl)acetamide] cannot be ordered by IC50: at most 1000 nM for the first, at most 1000 nM for the second.

`O=C(Cc1ccc(S(=O)(=O)NC2CC2)cc1)Nc1ccc(C(O)(CC2CCCC2)C(F)(F)F)cc1` (centres unmarked) [Example 99, N-(4-(3-cyclopentyl-1,1,1-trifluoro-2-hydroxypropan-2-yl)phenyl)-2-(4-(N-cyclopropylsulfamoyl)phenyl)acetamide] and `O=C(Cc1ccc(S(=O)(=O)CC2CC2)cc1)Nc1ccc(C(O)(C2CC2)C2CC2)cc1` [Example 106, 2-(4-((cyclopropylmethyl)sulfonyl)phenyl)-N-(4-(dicyclopropyl(hydroxy)methyl)phenyl)acetamide] cannot be ordered by IC50: at most 1000 nM for the first, at most 100 nM for the second.

`CCOC(c1ccc(NC(=O)Cc2ccc(S(=O)(=O)CC)cc2)cc1)(C(F)(F)F)C(F)(F)F` [Example 48, N-(4-(2-ethoxy-1,1,1,3,3,3-hexafluoropropan-2-yl)phenyl)-2-(4-(ethylsulfonyl)phenyl)acetamide] and `CCCOC(c1ccc(NC(=O)Cc2ccc(S(=O)(=O)CC3CC3)cc2)cc1)(C(F)(F)F)C(F)(F)F` [Example 60, 2-(4-((cyclopropylmethyl)sulfonyl)phenyl)-N-(4-(1,1,1,3,3,3-hexafluoro-2-propoxypropan-2-yl)phenyl)acetamide] cannot be ordered by IC50: at most 1000 nM for the first, at most 10 nM for the second.

`O=C(Cc1ccc(S(=O)(=O)CC2CC2)cc1)Nc1ccc(C(O)(c2ccccc2)C(F)(F)F)cc1` (centres unmarked) [Example 88, 2-(4-((cyclopropylmethyl)sulfonyl)phenyl)-N-(4-(2,2,2-trifluoro-1-hydroxy-1-phenylethyl)phenyl)acetamide] and `O=C(Cc1ccc(S(=O)(=O)CC2CC2)cc1)Nc1ccc(C(OCc2ccccc2)(C(F)(F)F)C(F)(F)F)cc1` [Example 59, N-(4-(2-(benzyloxy)-1,1,1,3,3,3-hexafluoropropan-2-yl)phenyl)-2-(4-((cyclopropylmethyl)sulfonyl)phenyl)acetamide] cannot be ordered by IC50: at most 100 nM for the first, at most 100 nM for the second.

`O=C(Nc1ccc(C(O)(C(F)(F)F)C(F)(F)F)cc1)C(=O)c1ccc(S(=O)(=O)CC2CC2)cc1` [Example 102, 2-(4-((cyclopropylmethyl)sulfonyl)phenyl)-N-(4-(1,1,1,3,3,3-hexafluoro-2-hydroxypropan-2-yl)phenyl)-2-oxoacetamide] and `O=C(Cc1cccc(S(=O)(=O)NC2CC2)c1)Nc1ccc(C(O)(C(F)(F)F)C(F)(F)F)cc1` [Example 12, 2-(3-(N-cyclopropylsulfamoyl)phenyl)-N-(4-(1,1,1,3,3,3-hexafluoro-2-hydroxypropan-2-yl)phenyl)acetamide] cannot be ordered by IC50: at most 1000 nM for the first, at most 1000 nM for the second.

Tested on: IL-17A production in anti-CD3/anti-CD28 stimulated peripheral blood mononuclear cells (PBMCs)
Test: Peripheral blood mononuclear cell (PBMC) IL-17 assay
Type: cell-based
Settings: Homo sapiens, 120 h, inhibition of IL-17A production, 5 days, IL-17 ELISA, read-out: mean pIC50 (converted)
Description: The assay procedure and results are described below.
This assay is designed to measure the levels of IL-17A secreted from anti-CD3/anti-CD28 stimulated PBMCs with the aim of measuring RORγ mediated inhibition of IL-17A production.
The assay medium consists of 90% RPMI 1640 (Lonza), 10% heat inactivated fetal bovin serum (FBS, Lonza) and 100 U/mL penicillin/streptomycin solution.
Anti-CD3 antibody (BD Pharmingen) was diluted to 10 μg/ml in PBS (Lonza). 30 μL of 10 μg/ml anti-CD3 solution was added to the inner 60 wells, excluding any negative control wells, of a 96-well cell culture treated U-bottom plate (Greiner). Plates were incubated overnight (16-24 hours) at 37° C. and 5% CO2.
Peripheral blood mononuclear cells were separated from buffy coats (Sanquin) using Ficoll-Paque PREMIUM separation medium (GE Healthcare Life Sciences) according to manufacturer's protocol and re-suspended in assay medium at 37° C.
Test compounds were diluted, starting from a 10 mM dimethylsulfoxide (DMSO) stock solution, to serial dilutions in DMSO at 200× the final test concentration. Subsequently, these solutions were diluted in two dilution steps in assay medium to 10× the final test concentration. The DMSO concentration of the 10× test compound solution was 5%.
Anti-CD28 antibody (BD Pharmingen) was diluted to 20 μg/mL in PBS. The PBMCs were diluted to a concentration of 2.5×10^6 cells/mL in assay medium at 37° C.
For compound screening, the anti-CD3 coated plates were washed three times with PBS, the wells were subsequently aspirated using vacuum. To each screening well 80 μL of the PBMC suspension, 10 μL of the anti-CD28 solution and 10 μL of the 10× test compound solution was added, resulting in the final test concentration with 0.5% DMSO. All outer wells were filled with assay medium to prevent evaporation. Plates were incubated for 5 days at 37° C. and 5% CO2.
After incubation the plates were spun down at 1500 rpm for 4 minutes and the supernatant was collected. Subsequently, the IL-17A levels in the supernatants was determined using an IL-17 ELISA kit (human IL-17 DuoSet, R&D systems) according to manufacturer's protocol.
The half maximum inhibitory concentration (IC50) values for the test compounds were calculated from the IL-17A signal using GraphPad Prism software (GraphPad Software).

`O=C(Cc1ccc(S(=O)(=O)CC2CC2)cc1)Nc1ccc(C(O)(C(F)(F)F)C(F)(F)F)cn1` [Example 107, 2-(4-((cyclopropylmethyl)sulfonyl)phenyl)-N-(5-(1,1,1,3,3,3-hexafluoro-2-hydroxypropan-2-yl)pyridin-2-yl)acetamide] and `CCS(=O)(=O)c1ccc(CC(=O)Nc2ccc(C(O)(C(F)(F)F)C(F)(F)F)cc2)cc1` [Example 2, 2-(4-(ethylsulfonyl)phenyl)-N-(4-(1,1,1,3,3,3-hexafluoro-2-hydroxypropan-2-yl)phenyl)acetamide] cannot be ordered by IC50: at most 1000 nM for the first, at most 1000 nM for the second.

`O=C(Cc1ccc(S(=O)(=O)NC2CC2)cc1)Nc1ccc(C(O)(C(F)(F)F)C(F)(F)F)c(F)c1` [Example 33, 2-(4-(N-cyclopropylsulfamoyl)phenyl)-N-(3-fluoro-4-(1,1,1,3,3,3-hexafluoro-2-hydroxypropan-2-yl)phenyl)acetamide] and `O=C(Cc1ccc(S(=O)(=O)NC2CC2)cc1)Nc1ccc(C(O)(C(F)(F)F)C(F)(F)F)cc1F` [Example 35, 2-(4-(N-cyclopropylsulfamoyl)phenyl)-N-(2-fluoro-4-(1,1,1,3,3,3-hexafluoro-2-hydroxypropan-2-yl)phenyl)acetamide] cannot be ordered by IC50: at most 1000 nM for the first, at most 1000 nM for the second.
